# Assay results: patent US6987093B2 (priority 2001, dated 2006)
# “And” between values parts separate entries of the source, which are not always exact repeats. Equal entries are not always repeated. Where two headings read alike, the source gives them in different places.
# Assays:
# H. influenzae = test: Single dose azithromycin pediatric AOM trial, subjects with H. influenzae at baseline; assay type: in vivo, human
# Text: (§1) Children six months to twelve years were enrolled if they had symptoms and signs of acute otitis media (“AOM”) for less than four weeks and middle ear effusion by acoustic reflectometry. Symptoms necessary for enrollment included ear pain or fullness, discharge from the external auditory canal, decreased hearing or fever. On physical examination they must have had one or more of the following: bulging or marked erythema of the tympanic membrane, loss of the normal light reflex or tympanic membrane landmarks, or impaired tympanic mobility on biphasic pneumatic otoscopy. The effusion was to be documented by acoustic reflectometry with an abnormal reading of 3 or higher.
# (§2) Samples of middle ear fluid were obtained by tympanocentesis or, in the case of a perforated tympanic membrane, by swab. Middle ear fluid samples were obtained for culture at baseline. […] Children who vomited within thirty minutes of dosing were redosed.
# (§3) Samples of middle ear fluid were split for storage at a central laboratory and cultured locally.
# (§4) A phone contact occurred on study day 5 to assess for adverse events followed by visits on days 10 and 24–28, at which time detailed clinical assessments were made and adverse events were recorded. Definitions included clinical cure (complete resolution of all signs and symptoms of AOM); improvement (partial resolution of signs and symptoms); or failure (no change or worsening of signs and symptoms, or requirement for additional antibiotic therapy for AOM). Any patient considered to have failed therapy was to have a repeat tympanocentesis.
# The primary endpoint of the trial was the investigator designated cure rate at Day 24–28 for which a 95% confidence interval was computed using the normal approximation to the binomial distribution. Other endpoints analyzed included the clinical response rate by baseline pathogen at Day 24–28, the overall clinical response at Day 10, the percentage of subjects with individual signs and symptoms, as well as findings from pneumatic otoscopy and acoustic reflectometry. […]
# [1] = tested on: Streptococcus pneumoniae 02J1016; test: Murine lung (pulmonary/pneumonia) infection model challenged with Streptococcus pneumoniae; assay type: in vivo, mouse
# [2] = tested on: Haemophilus influenzae 54A1100; test: Gerbil middle ear infection in vivo time kill, H. influenzae 54A1100
# S. pneumoniae isolates = test: Susceptibility (MIC) testing of trial S. pneumoniae isolates with PCR of resistance mechanism; assay type: cell-based, Streptococcus pneumoniae; conditions: Streptococcus pneumoniae
# Text: Samples of middle ear fluid were split for storage at a central laboratory and cultured locally. All pathogens isolated locally were subcultured and sent to a central laboratory for confirmation and susceptibility testing, performed by Kirby-Bauer disk-diffusion or MIC testing according to NCCLS standards.
# Polymerase chain reaction (PCR) determination of resistance mechanisms in all the azithromycin-resistant pneumococci was done.
# Cultures were taken for antimicrobial susceptibility testing and bacterial species were identified. Current NCCLS approved breakpoints for MICs and zone sizes were applied to all data irrespective of the breakpoint in use at the time of the study. The isolates from the clinical studies were sent to central laboratories for identification and susceptibility determination. The methods for agar diffusion disk tests are those recommended by NCCLS.
# The susceptibility breakpoints for azithromycin were defined as follows: […]
# [3] = Azithromycin pulmonary tissue pharmacokinetics in mice; assay type: in vivo; conditions: female, CF-1, mouse, lung (pulmonary tissue), Pulmonary PK, total dose 100 mg/kg oral; for AUC(0-t): read-out: AUC(0-tlast)
# Description: Blood and pulmonary tissue samples were taken starting at 0.5 h post-dose and at predetermined intervals over a 96 h period. Plasma and lung samples were prepared and maintained at −70 C. […] The lower limit of quantification (LLOQ) was 50 ng/ml. […] Interassay variability was <7%. Pharmacokinetic parameters were calculated using the non-compartmental method by WinNonlin 2.1 (Scientific Consulting, Inc.).
# S. pneumoniae = test: Single dose azithromycin pediatric AOM trial, subjects with S. pneumoniae at baseline; assay type: in vivo, human; conditions: for patients cured at day 28: 30 mg/kg
# Text: as §1, §2, §3, §4
# (§5) The primary endpoint of the trial was the investigator designated cure rate at Day 24–28 for which a 95% confidence interval was computed using the normal approximation to the binomial distribution. Other endpoints analyzed included the clinical response rate by baseline pathogen at Day 24–28, the overall clinical response at Day 10, the percentage of subjects with individual signs and symptoms, as well as findings from pneumatic otoscopy and acoustic reflectometry. Only Streptococcus pneumoniae, Moraxella catarrhalis and Haemophilus influenzae were considered baseline pathogens for the purposes of these analyses.
# (§6) Not all strains are equally virulent and the growth rate and kinetics of infection may influence the outcome. In addition, H. influenzae has been a difficult organism to culture from the middle ear.
# M catarrhalis = test: Study 95-001 otitis media, M. catarrhalis; assay type: in vivo, human; conditions: 3-day dosing regimen
# Description: Specimens for culture and susceptibility testing were obtained from the infected ear by tympanocentesis within 24 h of start of therapy. […] However, the study was evaluated using the breakpoints in the most recent set of guidelines.
# To be a bacteriological cure, the MITT subject had to have a positive culture from the middle ear for S. pneumoniae, H influenzae, or M. catarrhalis. Eradication was defined as presumed eradication of pretreatment pathogen(s) based on signs/symptoms or unavailability of culturable material. All evaluable patients had only one of the bacterial species present at baseline. There was no bacteriological response data collected for 95–001. However, the clinical outcome by bacterial pathogen at follow-up (approximately 28 days after first visit) was collected. For patients with S. pneumoniae as the baseline pathogen, all treatment arms yielded 100% clinical cure when the investigators' evaluations that were missing are not included in the analysis. […] The comparator drug, ceftriaxone, had no failures out of 9 patients.
# acute otitis media = test: Single 30 mg/kg dose azithromycin pediatric acute otitis media trial (Study A0661015), all subjects
# Text: Craig, W. A., “Postantibiotic effects and the dosing of Macrolides, azalides, and streptogramins”, In: Zinner, S. H. et al. (editor) Expanding Indications for New Macrolides, Azalides, and Streptogramins, New York: Marel Dekker (1997), pp. 27–38.
# as §1, §2, §4, §5
# This trial was an open-label, non-comparative study conducted at twenty-two sites from the United States, Costa Rica, Guatemala and Chile.
# as §6
# [4] = oral QD, murine pneumonia model
# [5] = 33 mg/kg, 3 days of dosing, 33.3 mg/kg/dose
# [6] = 1 day of dosing, 100 mg/kg/dose
# [7] = 2 days of dosing, 50 mg/kg/dose
smiles,measurement,setting,value
"CC[C@H]1OC(=O)[C@H](C)[C@@H](O[C@H]2C[C@@](C)(OC)[C@@H](O)[C@H](C)O2)[C@H](C)[C@@H](O[C@@H]2O[C@H](C)C[C@H](N(C)C)[C@H]2O)[C@](C)(O)C[C@@H](C)CN(C)[C@H](C)[C@@H](O)[C@]1(C)O [Azithromycin, 9a-aza-9a-methyl-9-deoxo-9a-homoerythromycin A]",clinical failure (and presumed persistence) rate,"H. influenzae; MITT, thirty-nine evaluable H. influenzae strains",33.3%
same,clinical cure rate overall with PCR-identified H. influenzae cures added,"H. influenzae; TOC, seventeen PCR-identified patients added",76.8%
same,clinical outcome at test of cure of patients with H. influenzae identified by PCR only,H. influenzae; seventeen additional patients,clinically cured
same,Oral PD50,[1]; Dosing Regimen 1 day,20.4 (16.4–24.3) mg/kg/day
same,Oral PD50,[1]; Dosing Regimen 2 days,27.6 (22.8–32.4) mg/kg/day
same,Oral PD50,[1]; Dosing Regimen 3 days,49.4 (28.1–70.8) mg/kg/day
same,Mice Surviving/Total,"[1]; mouse, in vivo",0/10 and 10/10 and 7/10 and 1/10 and 9/10 and 4/10
same,ED50 One-Day Therapy,[1]; [4],20^1 mg/kg/therapy
same,ED50 Three-Day Therapy,[1]; [4],49 mg/kg/therapy
same,ED50 Two-Day Therapy,[1]; [4],27 mg/kg/therapy
same,Recoverable CFU (Bulla) [Log10.Geo.Mean] (SEM),"[2]; 66.6 mg/kg/day oral Q.D. [3 days], 48 hours post-infection",5.8817 (0.44) log of cfu-bulla wash/ml and 5.8817 log of cfu-bulla wash/ml
same,Recoverable CFU (Bulla) [Log10.Geo.Mean] (SEM),"[2]; 66.6 mg/kg/day oral Q.D. [3 days], 72 hours post-infection",4.5981 (0.14) log of cfu-bulla wash/ml and 4.5981 log of cfu-bulla wash/ml
same,Recoverable CFU (Bulla) [Log10.Geo.Mean] (SEM),"[2]; 66.6 mg/kg/day oral Q.D. [3 days], 96 hours post-infection",6.1520 (0.75) log of cfu-bulla wash/ml and 6.1520 log of cfu-bulla wash/ml
same,Recoverable CFU (Bulla) [Log10.Geo.Mean] (SEM),"[2]; 100 mg/kg/day oral Q.D. [2 days], 48 hours post-infection",5.7572 (0.54) log of cfu-bulla wash/ml and 5.7572 log of cfu-bulla wash/ml
same,Recoverable CFU (Bulla) [Log10.Geo.Mean] (SEM),"[2]; 100 mg/kg/day oral Q.D. [2 days], 72 hours post-infection",<2.4580 (0.46) log of cfu-bulla wash/ml and <2.4580 log of cfu-bulla wash/ml
same,Recoverable CFU (Bulla) [Log10.Geo.Mean] (SEM),"[2]; 100 mg/kg/day oral Q.D. [2 days], 96 hours post-infection",<3.1112 (1.11) log of cfu-bulla wash/ml and <3.1112 log of cfu-bulla wash/ml
same,Recoverable CFU (Bulla) [Log10.Geo.Mean] (SEM),"[2]; 200 mg/kg/day oral Q.D. [1 day], 48 hours post-infection",<2.0000 log of cfu-bulla wash/ml
same,Recoverable CFU (Bulla) [Log10.Geo.Mean] (SEM),"[2]; 200 mg/kg/day oral Q.D. [1 day], 72 hours post-infection",<2.0000 log of cfu-bulla wash/ml
same,Recoverable CFU (Bulla) [Log10.Geo.Mean] (SEM),"[2]; 200 mg/kg/day oral Q.D. [1 day], 96 hours post-infection",<2.0000 log of cfu-bulla wash/ml
same,"eradication, test subjects","[2]; Q.D. 2 (100 mg/kg on day 1 and 2), at 72 and at 96 hours post-infection",4/5
same,eradication in any test subject,"[2]; Q.D. 3 (66.6 mg/kg on day 1, 2 and 3), 72 and 96 hours post-infection",not observed
same,MIC,S. pneumoniae isolates; macrolide-resistant S. pneumoniae isolates containing the erm B gene,> 256 µg/mL
same,MIC,S. pneumoniae isolates; macrolide-resistant S. pneumoniae isolates containing the mef A gene,8 µg/mL
same,Cmax,[3]; [5],28000 ng/mL
same,Tmax,[3]; [5],12 h
same,AUC(0-t),[3]; [5],1050 µg·h/mL
same,Cmax,[3]; [6],40000 ng/mL
same,Tmax,[3]; [6],4 h
same,AUC(0-t),[3]; [6],970 µg·h/mL
same,Cmax,[3]; [7],31000 ng/mL
same,Tmax,[3]; [7],28 h
same,AUC(0-t),[3]; [7],870 µg·h/mL
same,clinical cure rate versus susceptible S. pneumoniae isolates,S. pneumoniae; MICs≦0.25 μg/ml,92.5%
same,strains clinically cured,"S. pneumoniae; human, in vivo",40%
same,patients cured at day 28,"S. pneumoniae; human, in vivo",two of these five
same,"Clinical cure at day 28, number of children",S. pneumoniae; nine children with penicillin resistant S. pneumoniae isolates (MIC≧2 μg/ml),6
same,clinical cure rate versus resistant S. pneumoniae isolates,S. pneumoniae; resistant isolates,66.7%
same,patients cured at day 28,"S. pneumoniae; seven patients with mef A isolates (MIC 8 μg/ml), single 30 mg/kg dose",Six of these seven and 6/7
same,outcome at follow-up of the two M catarrhalis isolates,M catarrhalis,presumed bacteriological cures
same,children with acoustic reflectometry scores improved from baseline,acute otitis media; by day 24–28,83%
same,children with completely normal acoustic reflectometry readings,acute otitis media; by day 24–28,53%
same,patients with complete resolution of baseline symptoms,acute otitis media; by day 28,Ninety-two
same,patients with impaired tympanic membrane motility,acute otitis media; day 10 (93% at baseline),27%
same,subjects with other objective signs of tympanic membrane disease,acute otitis media; day 24–28,less than 10%
same,patients with impaired tympanic membrane motility,acute otitis media; day 24–28 (93% at baseline),12%
same,adverse event diarrhea,acute otitis media; single 30 mg/kg oral dose,3%
same,adverse event vomiting,acute otitis media; single 30 mg/kg oral dose,6%
